Data as given in the supplement of paper PMC8671470.

Tested on: K-562
Conditions: 72 h
Summary of the method: (§1)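 The IC50 was derived from log-logistic dose–response fitting. Each of fifteen myeloid leukaemia cell lines, seeded in RPMI 1640 within its linear growth range, was exposed in 384-well plates to five tenfold doses (1 to 10,000 nM) in duplicate for 72 h at 37 °C and 5% CO2. Luminescent ATP viability readings were normalised to vehicle and to a positive control at 10 µM before four-parameter curve fitting.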

Structure (SMILES)	IC50 (cell viability)
O=c1oc2c(cc1O)oc(=O)c1cc(O)c(O)c(O)c12 [Galloflavin]	> 10 µM
Nc1ccn([C@@H]2O[C@H](CO)[C@@H](O)C2(F)F)c(=O)n1 [Gemcitabine]	0.0164 µM
N[C@@H](CCC(=O)N[C@@H](CS)C(=O)NCC(=O)O)C(=O)O [Glutathione]	> 10 µM
Clc1cc(Cl)c(OCC#CI)cc1Cl [Haloprogin]	5.06 µM
O=c1[nH]c(=O)n([C@H]2C[C@H](O)[C@@H](CO)O2)cc1I [Idoxuridine]	4.34 µM
CC1Cc2ccccc2N1NC(=O)c1ccc(Cl)c(S(N)(=O)=O)c1 (centres undefined) [Indapamide]	> 10 µM
NS(=O)(=O)c1ccc(S(=O)(=O)Nc2cccc3c(Cl)c[nH]c23)cc1 [Indisulam]	1.43 µM
COc1ccc2c(c1)c(CC(=O)O)c(C)n2C(=O)c1ccc(Cl)cc1 [Indomethacine]	> 10 µM
Cn1cc(C[C@@H](N)C(=O)O)c2ccccc21 [Indoximod]	> 10 µM

Tested on: KU-812
Conditions: 72 h
Summary of the method: as §1

Structure (SMILES)	IC50 (cell viability)
OC[C@H]1N[C@@H](c2c[nH]c3c(O)ncnc23)[C@H](O)[C@@H]1O [Forodesine]	> 10 µM
O=c1oc2c(cc1O)oc(=O)c1cc(O)c(O)c(O)c12 [Galloflavin]	> 10 µM
Nc1ccn([C@@H]2O[C@H](CO)[C@@H](O)C2(F)F)c(=O)n1 [Gemcitabine]	0.0033 µM
N[C@@H](CCC(=O)N[C@@H](CS)C(=O)NCC(=O)O)C(=O)O [Glutathione]	> 10 µM
Clc1cc(Cl)c(OCC#CI)cc1Cl [Haloprogin]	2.03 µM
O=c1[nH]c(=O)n([C@H]2C[C@H](O)[C@@H](CO)O2)cc1I [Idoxuridine]	> 10 µM
CC1Cc2ccccc2N1NC(=O)c1ccc(Cl)c(S(N)(=O)=O)c1 (centres undefined) [Indapamide]	> 10 µM
NS(=O)(=O)c1ccc(S(=O)(=O)Nc2cccc3c(Cl)c[nH]c23)cc1 [Indisulam]	0.54 µM
COc1ccc2c(c1)c(CC(=O)O)c(C)n2C(=O)c1ccc(Cl)cc1 [Indomethacine]	> 10 µM
Cn1cc(C[C@@H](N)C(=O)O)c2ccccc21 [Indoximod]	> 10 µM

Tested on: HEL
Conditions: 72 h
Summary of the method: as §1

Structure (SMILES)	IC50 (cell viability)
OC[C@H]1N[C@@H](c2c[nH]c3c(O)ncnc23)[C@H](O)[C@@H]1O [Forodesine]	> 10 µM
O=c1oc2c(cc1O)oc(=O)c1cc(O)c(O)c(O)c12 [Galloflavin]	> 10 µM
Nc1ccn([C@@H]2O[C@H](CO)[C@@H](O)C2(F)F)c(=O)n1 [Gemcitabine]	0.00346 µM
N[C@@H](CCC(=O)N[C@@H](CS)C(=O)NCC(=O)O)C(=O)O [Glutathione]	> 10 µM
Clc1cc(Cl)c(OCC#CI)cc1Cl [Haloprogin]	3.48 µM
O=c1[nH]c(=O)n([C@H]2C[C@H](O)[C@@H](CO)O2)cc1I [Idoxuridine]	1.47 µM
CC1Cc2ccccc2N1NC(=O)c1ccc(Cl)c(S(N)(=O)=O)c1 (centres undefined) [Indapamide]	> 10 µM
NS(=O)(=O)c1ccc(S(=O)(=O)Nc2cccc3c(Cl)c[nH]c23)cc1 [Indisulam]	7 µM
COc1ccc2c(c1)c(CC(=O)O)c(C)n2C(=O)c1ccc(Cl)cc1 [Indomethacine]	> 10 µM
Cn1cc(C[C@@H](N)C(=O)O)c2ccccc21 [Indoximod]	> 10 µM

Tested on: ML-2
Conditions: 72 h
Summary of the method: as §1

Structure (SMILES)	IC50 (cell viability)
OC[C@H]1N[C@@H](c2c[nH]c3c(O)ncnc23)[C@H](O)[C@@H]1O [Forodesine]	> 10 µM
O=c1oc2c(cc1O)oc(=O)c1cc(O)c(O)c(O)c12 [Galloflavin]	> 10 µM
Nc1ccn([C@@H]2O[C@H](CO)[C@@H](O)C2(F)F)c(=O)n1 [Gemcitabine]	0.00312 µM
N[C@@H](CCC(=O)N[C@@H](CS)C(=O)NCC(=O)O)C(=O)O [Glutathione]	> 10 µM
Clc1cc(Cl)c(OCC#CI)cc1Cl [Haloprogin]	3.25 µM
O=c1[nH]c(=O)n([C@H]2C[C@H](O)[C@@H](CO)O2)cc1I [Idoxuridine]	2.51 µM
CC1Cc2ccccc2N1NC(=O)c1ccc(Cl)c(S(N)(=O)=O)c1 (centres undefined) [Indapamide]	> 10 µM
NS(=O)(=O)c1ccc(S(=O)(=O)Nc2cccc3c(Cl)c[nH]c23)cc1 [Indisulam]	0.703 µM
COc1ccc2c(c1)c(CC(=O)O)c(C)n2C(=O)c1ccc(Cl)cc1 [Indomethacine]	> 10 µM
Cn1cc(C[C@@H](N)C(=O)O)c2ccccc21 [Indoximod]	> 10 µM

Tested on: LAMA-84
Conditions: 72 h
Summary of the method: as §1

Structure (SMILES)	IC50 (cell viability)
OC[C@H]1N[C@@H](c2c[nH]c3c(O)ncnc23)[C@H](O)[C@@H]1O [Forodesine]	> 10 µM
O=c1oc2c(cc1O)oc(=O)c1cc(O)c(O)c(O)c12 [Galloflavin]	> 10 µM
Nc1ccn([C@@H]2O[C@H](CO)[C@@H](O)C2(F)F)c(=O)n1 [Gemcitabine]	0.00897 µM
N[C@@H](CCC(=O)N[C@@H](CS)C(=O)NCC(=O)O)C(=O)O [Glutathione]	> 10 µM
Clc1cc(Cl)c(OCC#CI)cc1Cl [Haloprogin]	5.49 µM
O=c1[nH]c(=O)n([C@H]2C[C@H](O)[C@@H](CO)O2)cc1I [Idoxuridine]	5.59 µM
CC1Cc2ccccc2N1NC(=O)c1ccc(Cl)c(S(N)(=O)=O)c1 (centres undefined) [Indapamide]	> 10 µM
NS(=O)(=O)c1ccc(S(=O)(=O)Nc2cccc3c(Cl)c[nH]c23)cc1 [Indisulam]	0.918 µM
COc1ccc2c(c1)c(CC(=O)O)c(C)n2C(=O)c1ccc(Cl)cc1 [Indomethacine]	> 10 µM
Cn1cc(C[C@@H](N)C(=O)O)c2ccccc21 [Indoximod]	> 10 µM

Tested on: KG-1
Conditions: 72 h
Summary of the method: as §1

Structure (SMILES)	IC50 (cell viability)
OC[C@H]1N[C@@H](c2c[nH]c3c(O)ncnc23)[C@H](O)[C@@H]1O [Forodesine]	> 10 µM
O=c1oc2c(cc1O)oc(=O)c1cc(O)c(O)c(O)c12 [Galloflavin]	> 10 µM
Nc1ccn([C@@H]2O[C@H](CO)[C@@H](O)C2(F)F)c(=O)n1 [Gemcitabine]	0.0061 µM
N[C@@H](CCC(=O)N[C@@H](CS)C(=O)NCC(=O)O)C(=O)O [Glutathione]	> 10 µM
Clc1cc(Cl)c(OCC#CI)cc1Cl [Haloprogin]	3.26 µM
O=c1[nH]c(=O)n([C@H]2C[C@H](O)[C@@H](CO)O2)cc1I [Idoxuridine]	> 10 µM
CC1Cc2ccccc2N1NC(=O)c1ccc(Cl)c(S(N)(=O)=O)c1 (centres undefined) [Indapamide]	> 10 µM
NS(=O)(=O)c1ccc(S(=O)(=O)Nc2cccc3c(Cl)c[nH]c23)cc1 [Indisulam]	0.932 µM
COc1ccc2c(c1)c(CC(=O)O)c(C)n2C(=O)c1ccc(Cl)cc1 [Indomethacine]	> 10 µM
Cn1cc(C[C@@H](N)C(=O)O)c2ccccc21 [Indoximod]	> 10 µM
